Assay results reported in EP0392384B1, “Targeted forms of methyltrithio antitumor agents” (AMERICAN CYANAMID COMPANY, priority 1989, dated 1990).

Tests used:
[1] = system: lymphocytic leukemia P388; assay: Lymphocytic Leukemia P388 Test; format: in vivo, BDF1 female mice; conditions: for T/Cx100 %: survival time treated/control
Description: These have been reported in "Cancer Chemotherapy Reports", Part III, Vol. 3, No. 2 (1972), Geran, et. al. These protocols have established standardized screening tests which are generally followed in the field of testing for antitumor agents. Of these systems, lymphocytic leukemia P388, melanotic melanoma B16, L1210 leukemia and colon 26 adenocarcinoma are particularly significant to the present invention. These neoplasms are utilized for testing as transplantable tumors in mice.
The animals used were BDF1 female mice. There were 5 or 6 mice per test group. The tumor transplant was by intraperitoneal injection of 0.5 ml of dilute ascitic fluid containing 1 x 10^6 cells of lymphocytic leukemia P388 on day zero. The test compounds were administered intraperitoneally at a volume of 0.5 ml in sterile, pyrogen free saline on days 1, 5 and 9 (relative to tumor inoculation) at the indicated doses. The mice were weighed and survivors recorded on a regular basis for 30 days. The median survival time and the ratio of survival time for treated (T)/control (C) animals were calculated. Values of T/C greater than or equal to 125 are considered to reflect significant antitumor activity.

[2] = system: human colon cancer cell line LS174T; assay: In vivo antitumor test, human tumor xenograft LS174T; parameters: species or system athymic (nude) mice; conditions: no MoAb, iv, three injections started on day 8, day 21 post-implantation
[3] = system: human Burkitt lymphoma cell line Raji TC; assay: In vivo antitumor test, human tumor xenograft Raji; parameters: species or system athymic (nude) mice; conditions: no MoAb, iv, three injections starting on day 7, day 35 post-implantation
[4] = system: human breast cancer cell line MX-1; assay: In vivo antitumor test, human tumor xenograft MX-1; parameters: species or system athymic (nude) mice; conditions: no MoAb, iv, three injections starting on day 2, day 42 post-implantation
[5] = dose 0.0006 mg/kg intraperitoneally on days 1, 5 and 9
[6] = dose 0.00125 mg/kg intraperitoneally on days 1, 5 and 9
[7] = dose 0.0025 mg/kg intraperitoneally on days 1, 5 and 9
[8] = dose 0.005 mg/kg intraperitoneally on days 1, 5 and 9
[9] = dose 0.0003 mg/kg intraperitoneally on days 1, 5 and 9
[10] = dose 0.010 mg/kg intraperitoneally on days 1, 5 and 9
[11] = dose 0.020 mg/kg intraperitoneally on days 1, 5 and 9
[12] = dose 0.040 mg/kg intraperitoneally on days 1, 5 and 9
[13] = dose 0.080 mg/kg intraperitoneally on days 1, 5 and 9

Compound: 3-Mercaptobutyryl hydrazide disulfide of LL-E33288γ1-I
- Median Survival [1, 5]: 19.5 days
- T/Cx100 % [1, 5]: 130%
- Median Survival [1, 6]: 21.0 days
- T/Cx100 % [1, 6]: 140%
- Median Survival [1, 7]: 23.0 days
- T/Cx100 % [1, 7]: 153%
- Median Survival [1, 8]: 28.5 days
- T/Cx100 % [1, 8]: 190%

Compound: 3-Mercaptoisovaleryl hydrazide disulfide of LL-E33288q1-I
- Median Survival [1, 9]: 14.0 days
- T/Cx100 % [1, 9]: 133%
- Median Survival [1, 5]: 13.0 days
- T/Cx100 % [1, 5]: 124%
- Median Survival [1, 6]: 16.0 days
- T/Cx100 % [1, 6]: 152%
- Median Survival [1, 7]: 17.0 days
- T/Cx100 % [1, 7]: 162%
- Median Survival [1, 8]: 18.0 days
- T/Cx100 % [1, 8]: 171%
- Median Survival [1, 10]: 26.5 days
- T/Cx100 % [1, 10]: 252%

Compound: 3-Mercaptopropionic Acid Disulfide of LL-E33288γ1^I
- T/Cx100 % [1, 7]: 125%
- T/Cx100 % [1, 8]: 145%

Compound: 3-Mercaptopropionyl hydrazide disulfide of LL-E33288α2-I
- Median Survival [1, 6]: 18.5 days
- T/Cx100 % [1, 6]: 161%
- Median Survival [1, 7]: 18.5 days
- T/Cx100 % [1, 7]: 161%
- Median Survival [1, 8]: 21.0 days
- T/Cx100 % [1, 8]: 183%
- Median Survival [1, 10]: 26.5 days
- T/Cx100 % [1, 10]: 230%

Compound: 3-Mercaptopropionyl hydrazide disulfide of N-acetyl LL-E33288γ1^I
- Median Survival [1, 11]: 15.0 days
- T/Cx100 % [1, 11]: 125%
- Median Survival [1, 12]: 18.0 days
- T/Cx100 % [1, 12]: 150%
- Median Survival [1, 13]: 21.0 days
- T/Cx100 % [1, 13]: 175%

Compound: CC[C@]1(O)C[C@H]2CN(CCc3c([nH]c4ccccc34)[C@@](C(=O)OC)(c3cc4c(cc3OC)N(C=O)[C@H]3[C@@](O)(C(=O)OC)[C@H](OC(C)=O)[C@]5(CC)C=CCN6CC[C@]43[C@@H]65)C2)C1 [Vincristine]
- S/T ([2]; Drug 20 mcg): 6/6
- Tumor Size (T/C)%control ([2]; Drug 20 mcg): 23 %control

Compound: Hydrazide of 3-mercaptopropionic acid disulfide of N-acetyl LL-E33288δ1^I [Hydrazide alone]
- S/T ([3]; Drug 1.0 mcg): 6/6
- Tumor Size (T/C)%control ([3]; Drug 1.0 mcg): 517 %control
- S/T ([4]; Drug 2.0 mcg): 3/6
- Tumor Size (T/C)%control ([4]; Drug 2.0 mcg): 71 %control

Compound: N-acetyl LL-E33288δ1^I [reference compound]
- S/T ([3]; Drug 0.5 mcg): 6/6
- Tumor Size (T/C)%control ([3]; Drug 0.5 mcg): 226 %control
- S/T ([4]; Drug 1.0 mcg): 2/6
- Tumor Size (T/C)%control ([4]; Drug 1.0 mcg): 46 %control
- S/T ([2]; Drug 2.0 mcg): 1/6
- Tumor Size (T/C)%control ([2]; Drug 2.0 mcg): 32 %control
